Data from paper PMC4503722, “Novel Phenotypic Outcomes Identified for a Public Collection of Approved Drugs from a Publicly Accessible Panel of Assays” (PLoS ONE, 2015).
Read-outs that look alike come from different tables or passages of the source.

How the values were obtained:
DLD-1 = test: cells; assay type: cell-based; settings: for IC50: read-out: Basal_Viability ATP DLD-1 summarized IC50
SW480 = test: cells; assay type: cell-based; settings: for IC50: read-out: Basal_Viability ATP SW480 summarized IC50
HCT116 = test: cells; assay type: cell-based; settings: for IC50: read-out: Basal_Viability ATP HCT116 summarized IC50
Colo320 = test: cells; assay type: cell-based; settings: for IC50: read-out: Basal_Viability ATP Colo 320 summarized IC50
HT-29 = test: cells; assay type: cell-based; settings: for IC50: read-out: Basal_Viability ATP HT-29 summarized IC50
RKO = test: cells; assay type: cell-based; settings: for Basal_Viability ATP RKO IC50/EC50 / IC50: assay number 29; for IC50: read-out: Basal_Viability ATP RKO summarized IC50
SNU-C1 = test: cells; assay type: cell-based; settings: for IC50: read-out: Basal_Viability ATP SNU-C1 summarized IC50
[1] = system: endothelial tube formation in co-cultures of ECFCs and ADSCs treated with VEGF; test: cells; assay type: cell-based, human; settings: read-out: VEGF_ADSC\ECFC Angio CD31 TubeArea summarized IC50
HeLa cells = test: cells; assay type: cell-based;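 as to Hela CellCycMod PI 4N summarized IC50: value tracks stimulation of 4N DNA content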
[2] = system: ECFC/ADSC co-culture cell nuclei number; settings: read-out: VEGF_ADSC\ECFC Angio Hoechst NucArea summarized IC50

CC(C)NCC(O)COc1ccc(CCOCC2CC2)cc1 (stereo not drawn) [NCGC00015159-11]
> 20 µM: Basal_Viability ATP DLD-1 IC50/EC50 (DLD-1; assay number 23) | Basal_Viability ATP SW480 IC50/EC50 (SW480; assay number 24) | Basal_Viability ATP HCT116 IC50/EC50 (HCT116; assay number 25, basal) | Basal_Viability ATP HT-29 IC50/EC50 (HT-29; assay number 28) | Basal_Viability ATP RKO IC50/EC50 (RKO) | Basal_Viability ATP SNU-C1 IC50/EC50 (SNU-C1; assay number 30)
6.1657 µM: Basal_Viability ATP Colo 320 IC50/EC50 (Colo320; assay number 27)

CCc1cccc2c3c([nH]c12)C(CC)(CC(=O)O)OCC3 (stereo not drawn) [NCGC00015399-16]
> 20 µM: Basal_Viability ATP DLD-1 IC50/EC50 (DLD-1; assay number 23, basal) | Basal_Viability ATP SW480 IC50/EC50 (SW480; assay number 24, basal) | Basal_Viability ATP HCT116 IC50/EC50 (HCT116; assay number 25, basal) | Basal_Viability ATP Colo 320 IC50/EC50 (Colo320; assay number 27, basal) | Basal_Viability ATP HT-29 IC50/EC50 (HT-29; assay number 28, basal) | Basal_Viability ATP RKO IC50/EC50 (RKO; basal) | Basal_Viability ATP SNU-C1 IC50/EC50 (SNU-C1; assay number 30, basal)

CC(C(=O)O)c1cccc(C(=O)c2ccccc2)c1 (stereo not drawn) [NCGC00015578-12]
10.2684 µM: Basal_Viability ATP SW480 IC50/EC50 (SW480; assay number 24, basal)
10.487 µM: Basal_Viability ATP HCT116 IC50/EC50 (HCT116; assay number 25, basal)
14.387 µM: Basal_Viability ATP HT-29 IC50/EC50 (HT-29; assay number 28, basal)
8.6441 µM: Basal_Viability ATP DLD-1 IC50/EC50 (DLD-1; assay number 23, basal)
3.7959 µM: Basal_Viability ATP SNU-C1 IC50/EC50 (SNU-C1; assay number 30, basal)

Oc1c(I)cc(Cl)c2cccnc12 [NCGC00016391-13]
0.475 µM: IC50 (SNU-C1)
0.441 µM: IC50 (SW480)
0.586 µM: IC50 (Colo320)
0.345 µM: IC50 (DLD-1)
> 10 µM: IC50 [1] | IC50 (HeLa cells; read-out: Hela CellCycMod PI 2N summarized IC50) | IC50 (HeLa cells; read-out: Hela CellCycMod PI 4N summarized IC50) | IC50 (HeLa cells; read-out: Hela CellCycMod PI Cell Number summarized IC50) | IC50 (HeLa cells; read-out: Hela CellCycMod PI MI summarized IC50) | IC50 [2]
0.392 µM: IC50 (HCT116)
18.6 µM: IC50 (HT-29)

Cc1c(NC(=O)c2cccnc2)c(=O)n(-c2ccccc2)n1C [NCGC00016605-08]
> 20 µM: IC50/EC50, Basal_Viability ATP DLD-1 (assay number 23) (DLD-1; basal) | IC50/EC50, Basal_Viability ATP SW480 (assay number 24) (SW480; basal) | IC50/EC50, Basal_Viability ATP HCT116 (assay number 25) (HCT116; basal) | IC50/EC50, Basal_Viability ATP Colo 320 (assay number 27) (Colo320; basal) | IC50/EC50, Basal_Viability ATP HT-29 (assay number 28) (HT-29; basal) | IC50/EC50, Basal_Viability ATP RKO (assay number 29) (RKO; basal) | IC50/EC50, Basal_Viability ATP SNU-C1 (assay number 30) (SNU-C1; basal)

O=C(O)c1ccccc1OP(=O)(O)O [NCGC00016668-06]
> 20 µM: IC50 (DLD-1; assay number 23, basal) | IC50 (SW480; assay number 24, basal) | IC50 (HCT116; assay number 25, basal) | IC50 (Colo320; assay number 27, basal) | IC50 (HT-29; assay number 28, basal) | IC50 (RKO; basal) | IC50 (SNU-C1; assay number 30, basal)

CCn1cc(C(=O)O)c(=O)c2cnc(N3CCNCC3)nc21 [NCGC00016866-11]
> 20 µM: Basal_Viability ATP DLD-1 IC50/EC50 (DLD-1; assay number 23, basal) | Basal_Viability ATP SW480 IC50/EC50 (SW480; assay number 24, basal) | Basal_Viability ATP HCT116 IC50/EC50 (HCT116; assay number 25, basal) | Basal_Viability ATP Colo 320 IC50/EC50 (Colo320; assay number 27, basal) | Basal_Viability ATP HT-29 IC50/EC50 (HT-29; assay number 28, basal) | Basal_Viability ATP RKO IC50/EC50 (RKO; basal) | Basal_Viability ATP SNU-C1 IC50/EC50 (SNU-C1; assay number 30, basal)

O=C(O)c1ccccc1S [NCGC00018107-05]
> 20 µM: IC50 (DLD-1; assay number 23, basal) | IC50 (SW480; assay number 24, basal) | IC50 (HCT116; assay number 25, basal) | IC50 (Colo320; assay number 27, basal) | IC50 (HT-29; assay number 28, basal) | IC50 (RKO; basal) | IC50 (SNU-C1; assay number 30, basal)

[N-]=[N+]=CC(=O)OC[C@H](N)C(=O)O [NCGC00021876-04]
> 20 µM: Basal_Viability ATP DLD-1 IC50/EC50 (DLD-1; assay number 23, basal) | Basal_Viability ATP SW480 IC50/EC50 (SW480; assay number 24, basal) | Basal_Viability ATP HCT116 IC50/EC50 (HCT116; assay number 25, basal) | Basal_Viability ATP HT-29 IC50/EC50 (HT-29; assay number 28, basal) | Basal_Viability ATP RKO IC50/EC50 (RKO; basal) | Basal_Viability ATP SNU-C1 IC50/EC50 (SNU-C1; assay number 30, basal)

Cc1ccc(Cl)c(Nc2ccccc2C(=O)[O-])c1Cl.[Na+] [NCGC00023217-08]
> 20 µM: Basal_Viability ATP SW480 IC50/EC50 (SW480; assay number 24, basal) | Basal_Viability ATP HCT116 IC50/EC50 (HCT116; assay number 25, basal) | Basal_Viability ATP Colo 320 IC50/EC50 (Colo320; assay number 27, basal) | Basal_Viability ATP HT-29 IC50/EC50 (HT-29; assay number 28, basal) | Basal_Viability ATP RKO IC50/EC50 (RKO; basal) | Basal_Viability ATP SNU-C1 IC50/EC50 (SNU-C1; assay number 30, basal)
15.1129 µM: Basal_Viability ATP DLD-1 IC50/EC50 (DLD-1; assay number 23, basal)
